We go through five compounds from patent US11529350B2, “Tyrosine kinase non-receptor 1 (TNK1) inhibitors and uses thereof” (Sumitomo Pharma Oncology, Inc., priority 2019, dated 2022).

For orientation: IC50 means the point on the concentration scale where inhibition reaches its midpoint.

For experiment [1], the system named is A549 cells. Nature of the experiment: Combination with bortezomib, A549 cell confluency (Incucyte). It counts as cell-based. Conditions: 1 nM alone, two independent experiments. The procedure: A549 cells were seeded in log phase (e.g., at 40-60% confluency) in a well plate. Drug treatments were: no drug treatment, DMSO, bortezomib at 50 nM, 10 nM, 5 nM, 2 nM or 1 nM, Example No. 13 at 10 nM, and bortezomib 50 nM, 10 nM, 5 nM, 2 nM or 1 nM combined with Example No. 13 at 10 nM. The DMSO concentrations were kept constant (including DMSO control) to control for any confounding DMSO toxicity.
Drug addition protocol: On day 1, cells were seeded at 60,000 cells/well, and incubated for 24 hours to allow adherence. On day 2, media was aspirated and replaced with 500 μl of the drug media preparations described below in correlating wells. The plates were placed in Incucyte for 7-14 days, and cell confluency was measured every 2 hours. […]

Experiment [2] concerns phospho-STAT5 in L540 cells. Nature of the experiment: In vitro pSTAT5 assay (ELISA) in L540 cells. It counts as cell-based. Conditions: Homo sapiens, L-540, 24 hours, normalized to cell viability, read-out: P-STAT5 Assay IC50. The procedure: The L540 cell line harbors a truncating mutation in the C-terminal regulatory region of the protein. As a consequence, TNK1 in L540 cells is constitutively active in phosphorylating key proteins, including STAT5. In TNK1 wild-type conditions (e.g., K562 CML cells), STAT5 phosphorylation is achieved in a TNK1-independent fashion. As such, reductions in phospho-STAT5 signal specific to the L540 cells are a good readout of TNK1 inhibitor function.
Methods: The in vitro pSTAT5 assay was performed with STAT5 AB (pY964/699) SimpleStep ELISA Kit (Abcam No. ab176656) according to the manufacturer's protocol. Briefly, L540 cells were grown in RPMI1640 media under standard culture conditions (10% FBS with penicillin/streptomycin). To assess test compound effects, cells were plated in 96 well plates (250,000 cells/mL) and allowed to grow overnight. Cells were subsequently treated with varying concentrations of test compound for 24 hours, before being harvested and interrogated with the STAT5 AB (pY964/699) SimpleStep ELISA Kit according to the manufacturer's protocol. Phospho-STAT5 signal was normalized to cell viability, as assessed by the CellTiter-Glo assay (Promega, Cat. No. G7570) on treated cells. TNK1 inhibitor IC50s were determined using Graphpad Prism software on normalized phospho-STAT5 measurements.
In general terms: An ELISA detects its analyte on a solid surface through an enzyme-linked reagent.

The target of experiment [3] is T1, TNK1 (Homo sapiens, UniProt Q13470).
T1 sequence (Q13470 1-666): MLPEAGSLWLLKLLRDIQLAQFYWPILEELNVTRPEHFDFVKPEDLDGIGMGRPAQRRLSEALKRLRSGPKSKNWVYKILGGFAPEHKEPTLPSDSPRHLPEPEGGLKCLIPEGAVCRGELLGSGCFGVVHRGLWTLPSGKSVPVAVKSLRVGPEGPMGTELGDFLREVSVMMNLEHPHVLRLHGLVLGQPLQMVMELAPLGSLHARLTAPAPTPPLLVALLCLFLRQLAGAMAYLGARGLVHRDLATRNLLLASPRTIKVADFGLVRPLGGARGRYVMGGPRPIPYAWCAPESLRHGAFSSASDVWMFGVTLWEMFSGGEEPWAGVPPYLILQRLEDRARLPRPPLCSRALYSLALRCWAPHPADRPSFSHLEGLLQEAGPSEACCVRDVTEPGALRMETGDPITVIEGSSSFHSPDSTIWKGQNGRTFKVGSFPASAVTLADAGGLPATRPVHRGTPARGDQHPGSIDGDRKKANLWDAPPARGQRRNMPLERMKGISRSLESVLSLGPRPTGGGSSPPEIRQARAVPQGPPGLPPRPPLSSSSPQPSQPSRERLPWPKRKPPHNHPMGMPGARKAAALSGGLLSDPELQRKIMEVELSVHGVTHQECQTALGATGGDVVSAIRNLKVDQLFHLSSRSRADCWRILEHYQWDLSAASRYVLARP
Nature of the experiment: TNK1 NanoBRET target engagement assay (HEK293). It counts as cell-based. Set-up: host or cells: HEK293. Conditions: HEK293 cells, 2 hours; read-out: NanoBRET TE Assay (HEK293) IC50. An excerpt: The NanoBRET target engagement (TE) assay (Promega, Madison, Wis.) enables the interrogation of the displacement of a tracer compound in the active site of a recombinant kinase by a test compound in the intracellular setting. The assay enables simultaneous testing of permeability, solubility, and kinase inhibition, and tests the specific interaction of test agents with a kinase of interest, here, TNK1. The assay is based on the principle of bioluminescence resonance energy transfer (BRET). In the assay, a plasmid-encoded, luciferase-tagged form of TNK1 is transfected into cells. A tracer compound is tagged with a fluorophore that fluoresces when bound to the TNK1 protein. Readout is luminescence and fluorescence. Test compounds show activity by displacing the tracer, thus disrupting BRET.
Methods: The TNK1 NanoBRET TE assays were performed according to the manufacturer's protocol. Briefly, Nanoluc-TNK1 Fusion Vector (Promega, Madison, Wis., Cat. No. NV2181) was transfected into HEK293 cells in bulk (8×10^6 cells in a T175 flask). Up to 30 hours post-transfection, cells were harvested by trypsinization, resuspended at a concentration of 2×10^5 cells/mL, and seeded in 96-well plates at 85 μL/well. A test compound and the K5 tracer were added to each well, and the cells were incubated for 2 hours. Luminescence ([…]) and fluorescence ([…]) were measured to determine a BRET ratio. IC50 values were determined from the BRET ratios using the Graphpad Prism software (GraphPad Software, San Diego, Calif.).
A general note: In BRET a luciferase serves as donor, and the signal depends on an acceptor being close.

The target of experiment [4] is T1, TNK1. Nature of the experiment: RBC HotSpot Kinase Assay. It counts as biochemical. Conditions: ATP 10 μM. Set-up: purchased Reaction Biology Corp., Malvern, Pa. The procedure: The RBC HotSpot Kinase assay (Reaction Biology Corp., Malvern, Pa.) was used to evaluate the ability of test compounds to modulate (e.g., inhibit) the enzymatic activity of human TNK1 (UniProt Accession No. Q13470) in the following reaction:
Reagent: Base Reaction buffer; 20 mM Hepes (pH 7.5), 10 mM MgCl2, 1 mM EGTA, 0.02% Brij35, 0.02 mg/ml BSA, 0.1 mM Na3VO4, 2 mM DTT, 1% DMSO. Required cofactors were added individually to each kinase reaction.
Compound handling: Test compounds were dissolved in 100% DMSO to specific concentration. The serial dilution was conducted by Integra Viaflo Assist in DMSO.
1. Prepared substrate (peptide substrate, poly[Glu:Tyr] (4:1), 0.2 mg/ml; ATP 10 μM) in freshly prepared Reaction Buffer;
2. Delivered any required cofactors to the substrate solution;
3. Delivered kinase (TNK1) into the substrate solution and gently mixed;
4. Delivered compounds in 100% DMSO into the kinase reaction mixture by Acoustic technology (Echo550; nanoliter range), incubated for 20 minutes at room temperature;
5. Delivered ^33P-ATP (specific activity 10 μCi/μl) into the reaction mixture to initiate the reaction;
6. Incubated for 2 hours at room temperature;
7. Detected radioactivity by filter-binding method;
8. Kinase activity data were expressed as the percent remaining kinase activity in test samples compared to vehicle (dimethyl sulfoxide) reactions. IC50 values and curve fits were obtained using Prism (GraphPad Software).

Turning to `CC(C)C[C@H](NC(=O)[C@H](Cc1ccccc1)NC(=O)c1cnccn1)B(O)O` [Bortezomib, bortezomib, reference compound], in experiment [1], the “cell growth inhibition, alone” value was “no inhibition of cell growth”.
In the case of `COc1cc(N2CCN(C)CC2)c(C)cc1Nc1ncc(Cl)c(Nc2cccnc2N(C)C)n1` [compound 6, 5-chloro-N^4-(2-(dimethylamino)pyridin-3-yl)-N^2-(2-methoxy-5-methyl-4-(4-methylpiperazin-1-yl)phenyl)pyrimidine-2,4-diamine], the 50% inhibitory concentration (IC50) in experiment [2] was 0.005 to 0.05 µM; in experiment [3], 0.15 to 1 µM; in experiment [4], below 0.005 µM.
Turning to `CN1CCN(c2c(Cl)cc(Nc3ncc(Cl)c(Nc4cccnc4N(C)C)n3)c3ccccc23)CC1` [compound 7, 5-chloro-N^2-(3-chloro-4-(4-methylpiperazin-1-yl)naphthalen-1-yl)-N^4-(2-(dimethylamino)pyridin-3-yl)pyrimidine-2,4-diamine], the values for the concentration for half-maximal inhibition (IC50) in experiment [2], in experiment [3] and in experiment [4] were 0.005 to 0.05 µM, above 1 µM and below 0.005 µM, respectively.
Turning to `COc1cc(N2CCN(C)CC2)c(C)cc1Nc1ncc(Cl)c(Nc2cccnc2N2CCCC2)n1` [compound 8, 5-chloro-N^2-(2-methoxy-5-methyl-4-(4-methylpiperazin-1-yl)phenyl)-N^4-(2-(pyrrolidin-1-yl)pyridin-3-yl)pyrimidine-2,4-diamine], the half-maximal inhibitory concentration (IC50) was 0.005 to 0.05 µM in experiment [2], 0.15 to 1 µM in experiment [3] and below 0.005 µM in experiment [4].
In the case of `COc1cc(N2CCN(C)CC2)c(C)cc1Nc1ncc(I)c(Nc2cccnc2N(C)C)n1` [compound 11, N^4-(2-(dimethylamino)pyridin-3-yl)-5-iodo-N^2-(2-methoxy-5-methyl-4-(4-methylpiperazin-1-yl)phenyl)pyrimidine-2,4-diamine], the values for the IC50 in experiment [2], in experiment [3] and in experiment [4] were 0.005 to 0.05 µM, 0.15 to 1 µM and below 0.005 µM, respectively.
